# Target: T1, CaOYE (Chloroflexus aggregans, UniProt B8G5D6)
# T1 construct: gene Cagg_2779; full-length ORF in pET-28a(+) (NdeI/BamHI), N-terminal His6-tag, E. coli BL21(DE3); model visible Met1 to Trp354; monomer in solution, dimer in crystal
# Test: X-ray crystal structure, […] Å
# Type: binding
# Conditions: non-covalent, active site; crystals from 100 mM HEPES pH 7.0, 1.1 M sodium malonate
# T1 sequence (B8G5D6 whole entry): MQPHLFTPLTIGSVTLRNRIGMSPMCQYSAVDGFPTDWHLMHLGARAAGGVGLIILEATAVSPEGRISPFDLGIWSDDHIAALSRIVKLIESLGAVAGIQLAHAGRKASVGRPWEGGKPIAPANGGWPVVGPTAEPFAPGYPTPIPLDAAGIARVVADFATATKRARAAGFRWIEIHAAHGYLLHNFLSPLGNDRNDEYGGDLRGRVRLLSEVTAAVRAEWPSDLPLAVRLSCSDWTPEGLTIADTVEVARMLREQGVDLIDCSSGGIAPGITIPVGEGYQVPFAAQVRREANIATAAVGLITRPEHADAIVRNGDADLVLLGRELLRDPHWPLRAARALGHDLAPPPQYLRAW
compound,measurement,value
Cc1cc2nc3c(=O)[nH]c(=O)nc-3n(C[C@H](O)[C@H](O)[C@H](O)COP(=O)(O)O)c2cc1C [FMN],"X-ray crystal structure, 2.40 Å",The enzyme accommodates one molecule of FMN cofactor on the top of the β-barrel core

# Reference: article PMC8146883, “A New Thermophilic Ene-Reductase from the Filamentous Anoxygenic Phototrophic Bacterium Chloroflexus aggregans” (Microorganisms, 2021)
